From US20110044938A1 (NYCOMED GMBH, priority 2006, published 2011)

Tests used:
[1] = test system: subclones of RKO colon adenocarcinoma cells (RKOp27 or RKOp21) arrested by Ponasterone A; experiment: Alamar Blue cell viability assay, cell cycle specific mode of action: cells arrested by ectopic p27Kip1 induced by Ponasterone A versus proliferating cells; type: cell-based; conditions: Homo sapiens, RKO p27 induced (arrested) cells, 10 μM Ponasterone A, 72 hours, value = class bound given in Table A, read-out: −logIC50 RKO p27 induced (arrested) (converted)
Experimental: To determine the cell cycle specific mode of action, subclones of RKO colon adenocarcinoma cells (RKOp27 or RKOp21 as described by Schmidt et al. in Oncogene 19, 2423-2429; 2000) are seeded into 96 well flat bottom plates at a density of 15000 cells per well in a volume of 50 μl per well in DMEM growth medium with 10% FCS containing 10 μM Ponasterone A. 24 hours after seeding the 50 μl each of the compound dilutions in DMEM medium are added into each well of the 96 Well plate. Each compound dilution is tested as quadruplicates. Wells containing untreated control cells are filled with 50 μl DMEM medium containing 1% DMSO. The cells are then incubated with the substances for 72 hours at 37° C. in a humidified athmosphere containing 5% carbon dioxide. To determine the viability of the cells, 10 μl of an Alamar Blue solution (Biosource) are added and the fluorescence was measured at an extinction of 544 nm and an emission of 590 nm. For the calculation of the cell viability the emission value from untreated cells is set as 100% viability and the emission rates of treated cells are set in relation to the values of untreated cells. Viabilities are expressed as % values. Viability is compared of proliferating cells grown in the absence of the inducer Ponasterone A, versus viability of cells arrested by the expression of ectopic p27Kip1 induced by Ponasterone A.
(§1) Representative −log IC50 [mol/l] values for anti-proliferation/cytotoxicity determined in the mentioned assays follow from the following table A, in which the numbers of the compound correspond to the numbers of the examples.

[2] = test system: RKO (RKOp27) human colon adenocarcinoma cells; experiment: Alamar Blue cell viability assay, anti-proliferative/cytotoxic activity on proliferating RKO subclones; type: cell-based; conditions: RKOp27, 72 h, RKO p27 uninduced (proliferating) cells, value = class bound given in Table A, read-out: −logIC50 RKO p27 uninduced (proliferating) (converted)
Experimental: The anti-proliferative/cytotoxic activity of the compounds described herein, can be tested on subclones of RKO (RKOp27) human colon adenocarcinoma cells (Schmidt et al., Oncogene 19, 2423-2429; 2000) using the Alamar Blue cell viability assay (described in O'Brien et al. Eur J Biochem 267, 5421-5426, 2000). The compounds are dissolved as 20 mM solutions in dimethylsulfoxide (DMSO) and subsequently diluted in semi-logarithmic steps. DMSO dilutions are further diluted 1:100 into Dulbecco's modified Eagle's medium (DMEM) containing 10% fetal calf serum to a final concentration twice as much as the final concentration in the test. RKO subclones are seeded into 96 well flat bottom plates at a density of 5000 cells per well in a volume of 50 μl per well. 24 hours after seeding the 50 μl each of the compound dilutions in DMEM medium are added into each well of the 96 Well plate. Each compound dilution is tested as quadruplicates. Wells containing untreated control cells are filled with 50 μl DMEM medium containing 1% DMSO. The cells are then incubated with the substances for 72 hours at 37° C. in a hunified atmosphere containing 5% carbon dioxide. To determine the viability of the cells, 10 μl of an Alamar Blue solution (Biosource) are added and the fluorescence is measured at an extinction of 544 nm and an emission of 590 nm. For the calculation of the cell viability the emission value from untreated cells is set as 100% viability and the emission rates of treated cells are set in relation to the values of untreated cells. Viabilities are expressed as % values.
The corresponding IC50 values of the compounds for anti-proliferative/cytotoxic activity are determined from the concentration-effect curves.
as §1

IC50 [1] [nM] | Structure (SMILES) | IC50 [2] [nM]
≥ 100000 | N#Cc1c(NC(=O)/C=C/c2cccnc2)sc2c1CCC(OC(=O)NCC1CCOCC1)C2 (centres unmarked) [Example 22, (Tetrahydro-pyran-4-ylmethyl)-carbamic acid 3-cyano-2-((E)-3-pyridin-3-yl-allanoylamino)-4,5,6,7-tetrahydro-benzo[b]thiophen-6-yl ester] | 501 to 2000
≥ 100000 | CCOC(=O)OC1CCc2c(sc(NC(=O)/C=C/c3cccnc3)c2C#N)C1 (centres unmarked) [Example 4, Carbonic acid 3-cyano-2-((E)-3-pyridin-3-yl-allanoylamino)-4,5,6,7-tetrahydro-benzo[b]thiophen-6-yl ester ethyl ester] | ≤ 501
≥ 100000 | N#Cc1c(NC(=O)/C=C/c2cccnc2)sc2c1CCC(COC(=O)N1CCC(O)CC1)C2 (centres unmarked) [Example 114, 4-Hydroxy-piperidine-1-carboxylic acid 3-cyano-2-((E)-3-pyridin-3-yl-allanoylamino)-4,5,6,7-tetrahydro-benzo[b]thiophen-6-ylmethyl ester] | ≤ 501
≥ 50100 | CC(CC(=O)Nc1sc2c(c1C#N)CCC(OC(=O)NCC1CCOCC1)C2)c1ccccc1 (centres unmarked) [Example 267, (Tetrahydro-pyran-4-ylmethyl)-carbamic acid 3-cyano-2-(3-phenyl-butanoylamino)-4,5,6,7-tetrahydro-benzo[b]thiophen-6-yl ester] | ≤ 501
≥ 100000 | N#Cc1c(NC(=O)/C=C/c2cccnc2)sc2c1CCC(OC(=O)N1CCCC(O)C1)C2 (centres unmarked) [Example 113, 3-Hydroxy-piperidine-1-carboxylic acid 3-cyano-2-((E)-3-pyridin-3-yl-allanoylamino)-4,5,6,7-tetrahydro-benzo[b]thiophen-6-yl ester] | ≤ 501
≥ 100000 | CCN(C)C(=O)OCC1CCc2c(sc(NC(=O)/C=C/c3cccnc3)c2C#N)C1 (centres unmarked) [Example 85, Ethyl-methyl-carbamic acid 3-cyano-2-((E)-3-pyridin-3-yl-allanoylamino)-4,5,6,7-tetrahydro-benzo[b]thiophen-6-ylmethyl ester] | ≤ 501
≥ 100000 | N#Cc1c(NC(=O)/C=C/c2cccnc2)sc2c1CCC(COC(=O)N1CC=CC1)C2 (centres unmarked) [Example 86, 2,5-Dihydro-pyrrole-1-carboxylic acid 3-cyano-2-((E)-3-pyridin-3-yl-allanoylamino)-4,5,6,7-tetrahydro-benzo[b]thiophen-6-ylmethyl ester] | ≤ 501
≥ 100000 | CN(C)C(=O)OC[C@@H]1CCc2c(sc(NC(=O)/C=C/c3cccnc3)c2C#N)C1 [Example 74b, Dimethyl-carbamic acid (R)-3-cyano-2-((E)-3-pyridin-3-yl-allanoylamino)-4,5,6,7-tetrahydro-benzo[b]thiophen-6-ylmethyl ester] | ≤ 501
≥ 100000 | N#Cc1c(NC(=O)/C=C/c2cccnc2)sc2c1CC[C@@H](COC(=O)N1CCC[C@@H](O)C1)C2 [Example 87a, (R)-3-Hydroxy-piperidine-1-carboxylic acid (R)-3-cyano-2-((E)-3-pyridin-3-yl-allanoylamino)-4,5,6,7-tetrahydro-benzo[b]thiophen-6-ylmethylester] | ≤ 501

More lines, now with the values behind:

Structure (SMILES) | IC50 [1] [nM] | IC50 [2] [nM]
COc1cccc(C(C)CC(=O)Nc2sc3c(c2C#N)CCC(OC(=O)NCc2cncn2C)C3)c1 (centres unmarked) [Example 272, (3-Methyl-3H-imidazol-4-ylmethyl)-carbamic acid 3-cyano-2-[3-(3-methoxy-phenyl)-butanoylamino]-4,5,6,7-tetrahydro-benzo[b]thiophen-6-yl ester] | ≥ 100000 | 501 to 2000
COc1cccc(CCC(=O)Nc2sc3c(c2C#N)CCC(OC(=O)NCc2ccno2)C3)c1 (centres unmarked) [Example 229, Isoxazol-5-ylmethyl-carbamic acid 3-cyano-2-[3-(3-methoxy-phenyl)-propanoylamino]-4,5,6,7-tetrahydro-benzo[b]thiophen-6-yl ester] | ≥ 100000 | 501 to 2000
COc1cccc(CCC(=O)Nc2sc3c(c2C#N)CCC(OC(=O)NCc2cnn(C)c2)C3)c1 (centres unmarked) [Example 223, (1-Methyl-1H-pyrazol-4-ylmethyl)-carbamic acid 3-cyano-2-[3-(3-methoxy-phenyl)-propanoylamino]-4,5,6,7-tetrahydro-benzo[b]thiophen-6-yl ester] | ≥ 100000 | ≤ 501
Cc1csc(CNC(=O)OCC2CCc3c(sc(NC(=O)/C=C/c4cccnc4)c3C#N)C2)n1 (centres unmarked) [Example 67, (4-Methyl-thiazol-2-ylmethyl)-carbamic acid 3-cyano-2-((E)-3-pyridin-3-yl-allanoylamino)-4,5,6,7-tetrahydro-benzo[b]thiophen-6-ylmethyl ester] | ≥ 100000 | ≤ 501
CCOc1ccccc1/C=C/C(=O)Nc1sc2c(c1C#N)CCC(COC(=O)NCCn1ccnc1)C2 (centres unmarked) [Example 32, (2-Imidazol-1-yl-ethyl)-carbamic acid 3-cyano-2-[(E)-3-(2-ethoxy-phenyl)-allanoylamino]-4,5,6,7-tetrahydro-benzo[b]thiophen-6-ylmethyl ester] | ≥ 100000 | 501 to 2000
CC(CC(=O)Nc1sc2c(c1C#N)CCC(OC(=O)N1CCOCC1)C2)c1ccccc1 (centres unmarked) [Example 366, Morpholine-4-carboxylic acid 3-cyano-2-(3-phenyl-butanoyl-amino)-4,5,6,7-tetrahydro-benzo[b] thiophen-6-yl ester] | ≥ 50100 | ≤ 501
CCOc1ccccc1/C=C/C(=O)Nc1sc2c(c1C#N)CCC(OC(=O)NCCOC)C2 (centres unmarked) [Example 12, (2-Methoxy-ethyl)-carbamic acid 3-cyano-2-[(E)-3-(2-ethoxy-phenyl)-allanoylamino]-4,5,6,7-tetrahydro-benzo[b]thiophen-6-yl ester] | ≥ 50100 | ≤ 501
COc1cccc(CCC(=O)Nc2sc3c(c2C#N)CCC(COC(=O)N2CCCC2)C3)c1 (centres unmarked) [Example 246, Pyrrolidine-1-carboxylic acid 3-cyano-2-[3-(3-methoxy-phenyl)-propanoylamino]-4,5,6,7-tetrahydro-benzo[b]thiophen-6-ylmethyl ester] | ≥ 100000 | ≤ 501
CC(CC(=O)Nc1sc2c(c1C#N)CCC(OC(=O)NCCc1cccnc1)C2)c1ccccc1 (centres unmarked) [Example 290, (2-Pyridin-3-yl-ethyl)-carbamic acid 3-cyano-2-(3-phenyl-butanoyl-amino)-4,5,6,7-tetrahydro-benzo[b]thiophen-6-yl ester] | ≥ 10000 | ≤ 501
Cc1cc(CNC(=O)OCC2CCc3c(sc(NC(=O)CCc4cccnc4)c3C#N)C2)on1 (centres unmarked) [Example 257, (3-Methyl-isoxazol-5-ylmethyl)-carbamic acid 3-cyano-2-(3-pyridin-3-yl-propanoylamino)-4,5,6,7-tetrahydro-benzo[b]thiophen-6-ylmethyl ester] | ≥ 100000 | 501 to 2000
CC(CC(=O)Nc1sc2c(c1C#N)CCC(OC(=O)NCc1nccn1C)C2)c1ccccc1 (centres unmarked) [Example 292, (1-Methyl-1H-imidazol-2-ylmethyl)-carbamic acid 3-cyano-2-(3-phenyl-butanoylamino)-4,5,6,7-tetrahydro-benzo[b] thiophen-6-yl ester] | ≥ 10000 | 501 to 2000
CCOc1ccccc1CCC(=O)Nc1sc2c(c1C#N)CCC(COC(=O)NCc1cccnc1)C2 (centres unmarked) [Example 175, Pyridin-3-ylmethyl-carbamic acid 3-cyano-2-[3-(2-ethoxy-phenyl)-propanoylamino]-4,5,6,7-tetrahydro-benzo[b]thiophen-6-ylmethyl ester] | ≥ 100000 | ≤ 501
Cn1cncc1CNC(=O)OCC1CCc2c(sc(NC(=O)/C=C/c3cccnc3)c2C#N)C1 (centres unmarked) [Example 43, (3-Methyl-3H-imidazol-4-ylmethyl)-carbamic acid 3-cyano-2-((E)-3-pyridin-3-yl-allanoylamino)-4,5,6,7-tetrahydro-benzo[b]thiophen-6-ylmethyl ester] | ≥ 100000 | ≤ 501
